Reference: article PMC8979054 (RSC Advances, 2022)
pEC50, pIC50: −log10 of the molar value. Like-named read-outs stand apart in the source and are kept apart here. Each block holds one compound with its values, some of them ahead of it.

What was measured:
xanthine oxidase [1] = molecular target: T1, xanthine oxidase (Bos taurus, UniProt P80457); assay: Fixed-ratio combination analysis on XO; conditions: for EC90: read-out: EC90 dose; for DRI: in techtochrysin + allopurinol combination
xanthine oxidase [2] = molecular target: T1, xanthine oxidase; assay: In vitro xanthine oxidase inhibitory assay; type: biochemical, bovine
XO = conditions: cited from earlier work; for pIC50: XO inhibition
[3] = Dm (median-effect dose), antilog of x-intercept of median-effect plot, CompuSyn
[4] = EC50 dose, single agent, dose for 50% inhibition of XO activity
[5] = single agent, dose for 10% inhibition of XO activity
[6] = single agent, dose for 30% inhibition of XO activity
[7] = single agent, dose for 70% inhibition of XO activity

T1 sequence (P80457 whole entry): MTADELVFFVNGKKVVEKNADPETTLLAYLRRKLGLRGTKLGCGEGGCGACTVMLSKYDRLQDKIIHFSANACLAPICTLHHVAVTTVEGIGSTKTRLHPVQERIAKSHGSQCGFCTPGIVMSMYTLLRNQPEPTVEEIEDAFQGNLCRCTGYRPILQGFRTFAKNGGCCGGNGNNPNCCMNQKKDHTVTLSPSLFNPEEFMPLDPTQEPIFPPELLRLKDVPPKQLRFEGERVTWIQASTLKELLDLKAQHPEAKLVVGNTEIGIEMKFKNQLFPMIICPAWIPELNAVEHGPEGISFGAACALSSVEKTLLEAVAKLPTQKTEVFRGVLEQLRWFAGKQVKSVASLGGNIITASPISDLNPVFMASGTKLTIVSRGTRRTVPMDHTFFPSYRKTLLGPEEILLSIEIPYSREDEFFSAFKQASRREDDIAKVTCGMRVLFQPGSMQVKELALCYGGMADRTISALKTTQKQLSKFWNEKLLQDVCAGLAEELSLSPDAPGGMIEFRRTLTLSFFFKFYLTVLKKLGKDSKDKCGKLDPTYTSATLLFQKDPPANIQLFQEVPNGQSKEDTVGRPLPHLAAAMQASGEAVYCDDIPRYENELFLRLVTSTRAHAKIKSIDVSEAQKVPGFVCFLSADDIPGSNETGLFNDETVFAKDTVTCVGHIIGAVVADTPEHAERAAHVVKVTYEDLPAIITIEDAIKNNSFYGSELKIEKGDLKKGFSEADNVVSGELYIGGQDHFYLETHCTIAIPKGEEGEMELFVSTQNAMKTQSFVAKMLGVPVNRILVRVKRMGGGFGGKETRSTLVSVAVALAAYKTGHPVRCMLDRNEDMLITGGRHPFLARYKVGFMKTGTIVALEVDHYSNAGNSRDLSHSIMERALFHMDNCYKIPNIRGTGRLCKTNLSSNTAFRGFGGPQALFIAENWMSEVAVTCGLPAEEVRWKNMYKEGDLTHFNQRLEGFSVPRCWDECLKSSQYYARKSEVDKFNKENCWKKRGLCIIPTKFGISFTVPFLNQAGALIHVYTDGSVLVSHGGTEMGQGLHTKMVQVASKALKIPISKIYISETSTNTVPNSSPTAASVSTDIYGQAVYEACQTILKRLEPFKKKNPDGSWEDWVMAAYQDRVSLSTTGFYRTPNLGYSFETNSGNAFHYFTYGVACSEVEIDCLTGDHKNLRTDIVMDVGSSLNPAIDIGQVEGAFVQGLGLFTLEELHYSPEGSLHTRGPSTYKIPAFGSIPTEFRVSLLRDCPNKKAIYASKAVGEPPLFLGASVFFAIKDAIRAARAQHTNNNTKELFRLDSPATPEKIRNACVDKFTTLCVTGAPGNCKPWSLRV

Compound: O=c1c(O)c(-c2ccc(O)c(O)c2)oc2cc(O)cc(O)c12 [Quercetin, quercetin]
pIC50 (XO): 5.53
type of XO inhibition (XO): mixed-type

Compound: O=c1cc(-c2ccc(O)cc2)oc2cc(O)cc(O)c12 [Apigenin, apigenin]
pIC50 (XO): 5.20
type of XO inhibition (XO): competitive

Compound: O=C1c2c(O)cc(O)cc2O[C@H](c2ccccc2)[C@H]1O [Pinobanksin, pinobanksin]
type of XO inhibition (XO): competitive

Compound: O=c1c(O)c(-c2ccccc2)oc2cc(O)cc(O)c12 [Galangin, galangin]
type of XO inhibition (XO): competitive

Compound: Oc1ncnc2[nH]ncc12 [Allopurinol, allopurinol, reference compound]
EC10 dose (xanthine oxidase [1]): 180 nM
EC30 dose (xanthine oxidase [1]): 420 nM
EC70 dose (xanthine oxidase [1]): 1840 nM
m (slope of the median-effect plot) (xanthine oxidase [1]): 1.44
EC90 (xanthine oxidase [1]): 4050 nM
pIC50 (XO): 4.88

Continued, in another order:

m (slope of the median-effect plot) (xanthine oxidase [1]; CompuSyn): 1.78
pEC50 (xanthine oxidase [1]; [3]): 5.98
pEC50 (xanthine oxidase [1]; [4]): 6.01
Dose of each drug alone required for the same effect (xanthine oxidase [1]; Fa 16%, rosmarinic acid/allopurinol analysis): 0.32 µM
Dose of each drug alone required for the same effect (xanthine oxidase [1]; Fa 34%, rosmarinic acid/allopurinol analysis): 0.72 µM
Dose of each drug alone required for the same effect (xanthine oxidase [1]; Fa 42%, rosmarinic acid/febuxostat analysis): 0.87 µM
Dose of each drug alone required for the same effect (xanthine oxidase [1]; Fa 66%, rosmarinic acid/febuxostat analysis): 1.78 µM
Dose of each drug alone required for the same effect (xanthine oxidase [1]; Fa 69%, rosmarinic acid/allopurinol analysis): 2.06 µM
Dose of each drug alone required for the same effect (xanthine oxidase [1]; Fa 74%, rosmarinic acid/febuxostat analysis): 2.35 µM
Dose of each drug alone required for the same effect (xanthine oxidase [1]; Fa 82%, rosmarinic acid/febuxostat analysis): 3.42 µM
Dose of each drug alone required for the same effect (xanthine oxidase [1]; Fa 92%, rosmarinic acid/febuxostat analysis): 6.21 µM
Dose of each drug alone required for the same effect (xanthine oxidase [1]; Fa 93%, rosmarinic acid/allopurinol analysis): 8.35 µM
Dose of each drug alone required for the same effect (xanthine oxidase [1]; Fa 98%, rosmarinic acid/allopurinol analysis): 21.32 µM
EC90 (xanthine oxidase [1]): 5220 nM
EC10 dose (xanthine oxidase [1]; [5]): 260 nM
EC30 dose (xanthine oxidase [1]; [6]): 480 nM
EC70 dose (xanthine oxidase [1]; [7]): 2440 nM
pIC50 (xanthine oxidase [2]): 6.01
Compound: O=C(/C=C/c1ccc(O)c(O)c1)O[C@H](Cc1ccc(O)c(O)c1)C(=O)O [Rosmarinic acid, rosmarinic acid]

EC10 dose (xanthine oxidase [1]): 5 nM
EC30 dose (xanthine oxidase [1]): 15 nM
EC70 dose (xanthine oxidase [1]): 40 nM
m (slope of the median-effect plot) (xanthine oxidase [1]): 1.57
EC90 (xanthine oxidase [1]): 120 nM
Compound: Cc1nc(-c2ccc(OCC(C)C)c(C#N)c2)sc1C(=O)O [Febuxostat, febuxostat, reference compound]

pIC50 (xanthine oxidase [2]): 5.77
Compound: O=c1cc(-c2ccc(O)c(O)c2)oc2cc(O)cc(O)c12 [Luteolin, luteolin]
pIC50 (XO): 5.09
type of XO inhibition (XO): competitive

m (slope of the median-effect plot) (xanthine oxidase [1]; CompuSyn): 1.73
pEC50 (xanthine oxidase [1]; [3]): 7.09
pEC50 (xanthine oxidase [1]; [4]): 7.08
Dose of each drug alone required for the same effect (xanthine oxidase [1]; Fa 19%, techtochrysin/allopurinol analysis): 0.031 µM
Dose of each drug alone required for the same effect (xanthine oxidase [1]; Fa 35%, techtochrysin/allopurinol analysis): 0.064 µM
Dose of each drug alone required for the same effect (xanthine oxidase [1]; Fa 53%, techtochrysin/febuxostat analysis): 0.11 µM
Dose of each drug alone required for the same effect (xanthine oxidase [1]; Fa 57%, techtochrysin/allopurinol analysis): 0.15 µM
Dose of each drug alone required for the same effect (xanthine oxidase [1]; Fa 69%, techtochrysin/febuxostat analysis): 0.20 µM
Dose of each drug alone required for the same effect (xanthine oxidase [1]; Fa 75%, techtochrysin/febuxostat analysis): 0.25 µM
Dose of each drug alone required for the same effect (xanthine oxidase [1]; Fa 84%, techtochrysin/febuxostat analysis): 0.39 µM
Dose of each drug alone required for the same effect (xanthine oxidase [1]; Fa 91%, techtochrysin/allopurinol analysis): 0.98 µM
Dose of each drug alone required for the same effect (xanthine oxidase [1]; Fa 94%, techtochrysin/febuxostat analysis): 0.96 µM
Dose of each drug alone required for the same effect (xanthine oxidase [1]; Fa 97%, techtochrysin/allopurinol analysis): 3.19 µM
DRI (xanthine oxidase [1]; Fa […]% (70% effect level doses)): 3.51 fold
DRI (xanthine oxidase [1]; Fa […]% (90% effect level doses)): 3.63 fold
EC90 (xanthine oxidase [1]): 880 nM
EC10 dose (xanthine oxidase [1]; [5]): 24 nM
EC30 dose (xanthine oxidase [1]; [6]): 46 nM
EC70 dose (xanthine oxidase [1]; [7]): 280 nM
pIC50 (xanthine oxidase [2]): 7.08
fold enhancement in XO inhibitory activity compared with allopurinol (xanthine oxidase [2]; from IC50 values of Table 5): 10 folds
Compound: COc1cc(O)c2c(=O)cc(-c3ccccc3)oc2c1 [Techtochrysin, techtochrysin]
